Earlier results in patent US6284845A, “Low temperature cure carboxyl terminated polyesters” (McWhorter Technologies, priority 1999, dated 2001).

Key:
rabbit [1] = system: rabbit
rabbit [2] = system: rabbit; remark: listed apart in the source

Structure (SMILES) | Acute oral toxicity LD50 (rat) [mg/kg] | Primary skin irritation (rabbit [1]) | Primary eye irritation (rabbit [2]) | Primary skin irritation (guinea pig)
CC(O)CN(CC(C)O)C(=O)CCCCC(=O)N(CC(C)O)CC(C)O (stereo not drawn) [Primid QM-1260, N,N,N',N'-Tetrakis (2-hydroxypropyl) adipamide] | > 2000 | not irritating | not irritating | –
O=C(CCCCC(=O)N(CCO)CCO)N(CCO)CCO [Primid XL-552, N,N,N',N'-Tetrakis (2-hydroxyethyl) adipamide] | > 5000 | – | not irritating | not irritating
